Measured values as given in BindingDB's records for PubMed 30125720 (Southern Medical University, 2018).

Assay: Inhibition of TGF-beta (unknown origin)

| Structure (SMILES) | IC50 [nM] |
| --- | --- |
| O=c1[nH]cc(-c2cccc(CO)c2)cc1-c1nc2cc(N3CCNCC3)ccc2[nH]1 | 970 |
| CC(=O)Nc1cc(Nc2nc(-c3ccc(F)c(C)n3)nc3[nH]cnc23)ccn1 | 0.34 |
| CCc1cnn(-c2cccc(C)n2)c1-c1cc2cnccc2s1 [US9090625, 4] | 4.3 |
